Source: the kinase profiling compilation of Christmann-Franck et al. (2016)

Legend:
Assay in all cases: KINOMEscan competition binding
Conditions in all cases: compound 0.5 µM
ACVR1 (human) = ACVR1 (human) (UniProt Q04771)
ACVR1B (human) = ACVR1B (human) (UniProt P36896)
AKT1 (human) = AKT1 (human) (UniProt P31749)
AKT2 (human) = AKT2 (human) (UniProt P31751)
AURKB (human) = AURKB (human) (UniProt Q96GD4)
CAMK2D (human) = CAMK2D (human) (UniProt Q13557)
CDC42BPA (human) = CDC42BPA (human) (UniProt Q5VT25)
CDK16 (human) = CDK16 (human) (UniProt Q00536)
CSNK1E (human) = CSNK1E (human) (UniProt P49674)
DCLK2 (human) = DCLK2 (human) (UniProt Q8N568)
DDR1 (human) = DDR1 (human) (UniProt Q08345)
[1] = tested on: FLT3 (human), P36888 [D835H]
HCK (human) = HCK (human) (UniProt P08631)
HIPK4 (human) = HIPK4 (human) (UniProt Q8NE63)
IKBKE (human) = IKBKE (human) (UniProt Q14164)
IRAK1 (human) = IRAK1 (human) (UniProt P51617)
[2] = tested on: KIT (human), P10721 [A829P]
LATS1 (human) = LATS1 (human) (UniProt O95835)
LATS2 (human) = LATS2 (human) (UniProt Q9NRM7)
MAPK9 (human) = MAPK9 (human) (UniProt P45984)
[3] = tested on: MET (human), P08581 [Y1235D]
MLTK (human) = MLTK (human) (UniProt Q9NYL2)
NLK (human) = NLK (human) (UniProt Q9UBE8)
NTRK3 (human) = NTRK3 (human) (UniProt Q16288)
[4] = tested on: PIK3CA (human), P42336 [H1047L]
PLK2 (human) = PLK2 (human) (UniProt Q9NYY3)
PRKCE (human) = PRKCE (human) (UniProt Q02156)
PRKD1 (human) = PRKD1 (human) (UniProt Q15139)
RPS6KA2 KD1 (human) = RPS6KA2 KD1 (human) (UniProt Q15349)
RPS6KA4 KD1 (human) = RPS6KA4 KD1 (human) (UniProt O75676)
RPS6KA5 KD2 (human) = RPS6KA5 KD2 (human) (UniProt O75582)
SGK110 (human) = SGK110 (human) (UniProt P0C264)
SRC (human) = SRC (human) (UniProt P12931)
SRMS (human) = SRMS (human) (UniProt Q9H3Y6)
STK10 (human) = STK10 (human) (UniProt O94804)
STK32B (human) = STK32B (human) (UniProt Q9NY57)
STK4 (human) = STK4 (human) (UniProt Q13043)
TGFBR2 (human) = TGFBR2 (human) (UniProt P37173)
[5] = biological target: TYK2 JH2 pseudokinase (human) (UniProt P29597)
ULK3 (human) = ULK3 (human) (UniProt Q6PHR2)
YSK4 (human) = YSK4 (human) (UniProt Q56UN5)

Sequence of RPS6KA4 KD1 (human) (O75676 whole entry, looked up): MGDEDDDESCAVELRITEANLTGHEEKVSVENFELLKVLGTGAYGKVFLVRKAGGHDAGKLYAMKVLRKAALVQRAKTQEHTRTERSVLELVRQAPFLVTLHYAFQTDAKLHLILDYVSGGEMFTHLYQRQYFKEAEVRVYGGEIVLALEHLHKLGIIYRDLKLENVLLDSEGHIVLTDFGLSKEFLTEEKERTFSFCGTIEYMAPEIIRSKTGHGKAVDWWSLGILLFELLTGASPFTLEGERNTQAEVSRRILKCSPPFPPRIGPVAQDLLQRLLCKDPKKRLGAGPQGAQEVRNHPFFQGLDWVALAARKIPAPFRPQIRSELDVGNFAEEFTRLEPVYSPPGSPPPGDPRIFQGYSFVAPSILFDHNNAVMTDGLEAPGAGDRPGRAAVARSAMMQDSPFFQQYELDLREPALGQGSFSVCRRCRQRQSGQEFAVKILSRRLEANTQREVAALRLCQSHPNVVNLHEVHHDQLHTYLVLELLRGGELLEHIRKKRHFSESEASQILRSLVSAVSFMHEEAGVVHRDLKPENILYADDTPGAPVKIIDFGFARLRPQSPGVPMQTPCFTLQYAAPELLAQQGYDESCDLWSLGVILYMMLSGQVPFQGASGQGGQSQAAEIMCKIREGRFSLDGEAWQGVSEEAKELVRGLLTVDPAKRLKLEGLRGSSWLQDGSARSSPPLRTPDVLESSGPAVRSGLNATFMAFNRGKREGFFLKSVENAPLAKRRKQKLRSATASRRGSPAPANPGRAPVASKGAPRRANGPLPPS
Sequence of TGFBR2 (human) (P37173 whole entry, looked up): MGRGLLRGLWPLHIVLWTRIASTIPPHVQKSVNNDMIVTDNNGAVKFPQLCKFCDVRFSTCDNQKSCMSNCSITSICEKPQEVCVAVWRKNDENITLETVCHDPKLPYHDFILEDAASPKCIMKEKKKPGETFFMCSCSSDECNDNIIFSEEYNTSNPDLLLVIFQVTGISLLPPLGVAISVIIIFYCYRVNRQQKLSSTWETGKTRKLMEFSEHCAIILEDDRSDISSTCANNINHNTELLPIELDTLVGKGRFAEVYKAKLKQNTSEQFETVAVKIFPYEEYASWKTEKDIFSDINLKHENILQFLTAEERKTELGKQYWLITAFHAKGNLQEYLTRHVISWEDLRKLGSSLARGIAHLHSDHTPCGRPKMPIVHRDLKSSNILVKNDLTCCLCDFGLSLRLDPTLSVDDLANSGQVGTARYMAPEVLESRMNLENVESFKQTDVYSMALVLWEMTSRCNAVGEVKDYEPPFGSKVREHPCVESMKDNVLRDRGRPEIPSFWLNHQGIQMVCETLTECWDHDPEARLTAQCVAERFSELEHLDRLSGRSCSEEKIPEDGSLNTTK
Sequence of ACVR1 (human) (Q04771 whole entry, looked up): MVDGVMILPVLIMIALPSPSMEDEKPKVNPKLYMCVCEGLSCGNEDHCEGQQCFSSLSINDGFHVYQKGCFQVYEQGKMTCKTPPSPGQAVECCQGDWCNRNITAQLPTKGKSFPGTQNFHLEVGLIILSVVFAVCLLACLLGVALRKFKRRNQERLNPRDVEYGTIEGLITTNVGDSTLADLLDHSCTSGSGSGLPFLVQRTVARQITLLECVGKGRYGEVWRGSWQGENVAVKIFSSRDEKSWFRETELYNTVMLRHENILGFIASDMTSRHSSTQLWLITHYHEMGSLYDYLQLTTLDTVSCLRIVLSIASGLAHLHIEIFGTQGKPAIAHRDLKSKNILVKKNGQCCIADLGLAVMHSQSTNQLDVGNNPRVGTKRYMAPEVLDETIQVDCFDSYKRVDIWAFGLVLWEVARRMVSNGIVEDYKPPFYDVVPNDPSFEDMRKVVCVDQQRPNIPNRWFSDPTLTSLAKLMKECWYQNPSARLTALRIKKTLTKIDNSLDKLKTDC
Sequence of STK32B (human) (Q9NY57 whole entry, looked up): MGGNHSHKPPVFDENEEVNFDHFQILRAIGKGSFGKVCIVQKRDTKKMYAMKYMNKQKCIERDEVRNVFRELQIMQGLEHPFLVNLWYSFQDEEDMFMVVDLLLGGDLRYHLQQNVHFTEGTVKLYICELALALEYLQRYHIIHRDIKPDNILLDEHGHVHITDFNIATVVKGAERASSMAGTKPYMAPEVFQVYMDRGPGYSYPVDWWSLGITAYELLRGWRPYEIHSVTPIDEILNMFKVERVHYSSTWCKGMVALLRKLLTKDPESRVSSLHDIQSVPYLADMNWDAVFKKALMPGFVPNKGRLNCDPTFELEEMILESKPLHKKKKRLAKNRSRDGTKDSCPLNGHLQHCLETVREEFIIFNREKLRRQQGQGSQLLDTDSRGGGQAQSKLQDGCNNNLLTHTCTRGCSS
Sequence of MAPK9 (human) (P45984 whole entry, looked up): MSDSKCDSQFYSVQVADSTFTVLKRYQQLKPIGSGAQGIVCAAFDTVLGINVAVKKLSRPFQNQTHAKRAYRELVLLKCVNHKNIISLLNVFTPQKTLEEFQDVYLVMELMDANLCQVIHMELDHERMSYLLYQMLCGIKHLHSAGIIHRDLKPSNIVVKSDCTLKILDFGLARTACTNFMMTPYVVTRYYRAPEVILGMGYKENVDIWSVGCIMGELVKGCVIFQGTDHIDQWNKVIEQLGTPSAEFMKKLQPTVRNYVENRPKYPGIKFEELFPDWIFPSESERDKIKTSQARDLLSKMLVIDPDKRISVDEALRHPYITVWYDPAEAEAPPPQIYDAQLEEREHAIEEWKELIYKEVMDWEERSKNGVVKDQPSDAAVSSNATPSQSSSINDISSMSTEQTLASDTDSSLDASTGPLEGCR
Sequence of NLK (human) (Q9UBE8 whole entry, looked up): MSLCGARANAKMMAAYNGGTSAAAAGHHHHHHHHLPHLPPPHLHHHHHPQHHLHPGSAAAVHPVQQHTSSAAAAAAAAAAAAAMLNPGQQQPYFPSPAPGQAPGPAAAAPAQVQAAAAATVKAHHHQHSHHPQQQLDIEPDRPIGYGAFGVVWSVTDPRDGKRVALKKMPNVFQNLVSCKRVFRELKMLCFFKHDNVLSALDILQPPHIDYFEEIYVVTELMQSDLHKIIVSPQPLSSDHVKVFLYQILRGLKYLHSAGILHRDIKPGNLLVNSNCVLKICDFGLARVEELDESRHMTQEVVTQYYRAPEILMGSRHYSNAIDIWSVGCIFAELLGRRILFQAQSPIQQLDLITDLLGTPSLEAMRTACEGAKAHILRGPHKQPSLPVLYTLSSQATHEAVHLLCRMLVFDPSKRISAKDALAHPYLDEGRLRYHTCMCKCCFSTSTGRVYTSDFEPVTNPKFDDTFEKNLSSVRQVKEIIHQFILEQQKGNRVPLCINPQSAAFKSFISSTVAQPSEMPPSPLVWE
Sequence of RPS6KA5 KD2 (human) (O75582 whole entry, looked up): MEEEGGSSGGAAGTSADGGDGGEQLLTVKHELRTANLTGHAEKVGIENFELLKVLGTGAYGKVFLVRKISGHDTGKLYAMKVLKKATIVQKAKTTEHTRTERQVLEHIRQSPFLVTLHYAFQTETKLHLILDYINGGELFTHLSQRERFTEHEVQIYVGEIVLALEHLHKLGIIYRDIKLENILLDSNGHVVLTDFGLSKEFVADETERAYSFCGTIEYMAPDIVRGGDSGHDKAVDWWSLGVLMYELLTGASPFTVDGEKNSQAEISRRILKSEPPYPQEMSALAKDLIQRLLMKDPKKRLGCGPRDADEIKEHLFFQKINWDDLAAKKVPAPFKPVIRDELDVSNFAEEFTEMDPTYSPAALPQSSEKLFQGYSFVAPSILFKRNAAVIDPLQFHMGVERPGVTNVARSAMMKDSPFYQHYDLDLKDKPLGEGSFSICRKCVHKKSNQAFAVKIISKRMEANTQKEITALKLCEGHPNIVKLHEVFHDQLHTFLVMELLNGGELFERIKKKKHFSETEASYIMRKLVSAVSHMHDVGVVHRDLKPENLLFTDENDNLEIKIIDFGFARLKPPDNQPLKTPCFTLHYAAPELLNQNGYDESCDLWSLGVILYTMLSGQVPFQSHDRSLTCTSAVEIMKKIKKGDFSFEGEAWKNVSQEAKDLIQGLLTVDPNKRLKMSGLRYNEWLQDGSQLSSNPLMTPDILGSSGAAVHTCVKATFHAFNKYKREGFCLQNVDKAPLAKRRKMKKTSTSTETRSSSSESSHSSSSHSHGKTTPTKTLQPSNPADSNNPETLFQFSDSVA
Sequence of SRC (human) (P12931 whole entry, looked up): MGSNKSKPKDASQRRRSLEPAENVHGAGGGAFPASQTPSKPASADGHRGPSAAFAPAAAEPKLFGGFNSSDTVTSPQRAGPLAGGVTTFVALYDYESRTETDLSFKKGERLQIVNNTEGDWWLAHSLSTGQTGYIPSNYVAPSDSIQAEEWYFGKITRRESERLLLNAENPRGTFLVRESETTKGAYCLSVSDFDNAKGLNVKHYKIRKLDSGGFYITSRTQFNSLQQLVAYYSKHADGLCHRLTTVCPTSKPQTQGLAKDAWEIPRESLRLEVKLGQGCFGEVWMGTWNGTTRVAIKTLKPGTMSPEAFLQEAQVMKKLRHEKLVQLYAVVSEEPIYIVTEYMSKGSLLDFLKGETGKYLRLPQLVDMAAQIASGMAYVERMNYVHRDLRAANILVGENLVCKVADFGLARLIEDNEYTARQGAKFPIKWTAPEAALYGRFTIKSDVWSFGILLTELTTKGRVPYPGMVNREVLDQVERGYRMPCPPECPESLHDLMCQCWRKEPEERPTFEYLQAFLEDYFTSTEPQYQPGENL
Sequence of CSNK1E (human) (P49674 whole entry, looked up): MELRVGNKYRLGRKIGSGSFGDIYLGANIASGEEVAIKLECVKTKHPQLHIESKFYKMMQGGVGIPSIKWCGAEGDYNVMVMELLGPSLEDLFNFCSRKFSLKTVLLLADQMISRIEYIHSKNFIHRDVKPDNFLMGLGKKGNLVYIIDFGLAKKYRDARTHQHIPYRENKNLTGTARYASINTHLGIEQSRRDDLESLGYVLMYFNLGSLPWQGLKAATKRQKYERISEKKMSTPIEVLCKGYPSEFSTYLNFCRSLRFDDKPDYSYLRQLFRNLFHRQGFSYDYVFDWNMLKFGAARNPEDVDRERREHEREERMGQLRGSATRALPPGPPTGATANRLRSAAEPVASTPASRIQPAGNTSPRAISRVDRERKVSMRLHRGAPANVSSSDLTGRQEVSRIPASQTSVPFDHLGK

SMILES: Cn1c2ccccc2c2c3c(c4c5ccccc5n(CCC#N)c4c21)CNC3=O
- kinase still bound, per cent of control (ACVR1 (human)): 21%
- kinase still bound, per cent of control (ACVR1B (human)): 85%
- kinase still bound, per cent of control (AKT1 (human)): 100%
- kinase still bound, per cent of control (AKT2 (human)): 95%
- kinase still bound, per cent of control (AURKB (human)): 32%
- kinase still bound, per cent of control (CAMK2D (human)): 33%
- kinase still bound, per cent of control (CDC42BPA (human)): 94%
- kinase still bound, per cent of control (CDK16 (human)): 93%
- kinase still bound, per cent of control (CSNK1E (human)): 100%
- kinase still bound, per cent of control (DCLK2 (human)): 100%
- kinase still bound, per cent of control (DDR1 (human)): 100%
- kinase still bound, per cent of control [1]: 2.6%
- kinase still bound, per cent of control (HCK (human)): 100%
- kinase still bound, per cent of control (HIPK4 (human)): 8%
- kinase still bound, per cent of control (IKBKE (human)): 99%
- kinase still bound, per cent of control (IRAK1 (human)): 14%
- kinase still bound, per cent of control [2]: 54%
- kinase still bound, per cent of control (LATS1 (human)): 31%
- kinase still bound, per cent of control (LATS2 (human)): 36%
- kinase still bound, per cent of control (MAPK9 (human)): 46%
- kinase still bound, per cent of control [3]: 80%
- kinase still bound, per cent of control (MLTK (human)): 96%
- kinase still bound, per cent of control (NLK (human)): 100%
- kinase still bound, per cent of control (NTRK3 (human)): 0.15%
- kinase still bound, per cent of control [4]: 43%
- kinase still bound, per cent of control (PLK2 (human)): 100%
- kinase still bound, per cent of control (PRKCE (human)): 66%
- kinase still bound, per cent of control (PRKD1 (human)): 24%
- kinase still bound, per cent of control (RPS6KA2 KD1 (human)): 5.4%
- kinase still bound, per cent of control (RPS6KA4 KD1 (human)): 46%
- kinase still bound, per cent of control (RPS6KA5 KD2 (human)): 71%
- kinase still bound, per cent of control (SGK110 (human)): 13%
- kinase still bound, per cent of control (SRC (human)): 100%
- kinase still bound, per cent of control (SRMS (human)): 100%
- kinase still bound, per cent of control (STK10 (human)): 28%
- kinase still bound, per cent of control (STK32B (human)): 100%
- kinase still bound, per cent of control (STK4 (human)): 5.4%
- kinase still bound, per cent of control (TGFBR2 (human)): 100%
- kinase still bound, per cent of control [5]: 84%
- kinase still bound, per cent of control (ULK3 (human)): 15%
- kinase still bound, per cent of control (YSK4 (human)): 0%
